# Laboratory results from US20250127906A1, “SMALL-MOLECULE DEGRADERS OF CDK8 AND CDK19” (University of South Carolina, priority 2021, published 2025).
# Assays:
# [1] = tested on: CDK8/19-regulated genes; test: QPCR of CDK8/19-regulated genes in HEK-293 wild-type and CDK8/19 double-knockout cells; format: cell-based, human; conditions: for effect on expression of CDK8/19-regulated genes: 200 nM, 3-day treatment
# Procedure: CDK8/19 act as transcriptional regulators, and therefore we tested the effects of 3-day treatment with 200 nM PROTAC IA7886 along with 200 nM CDK8/19 kinase inhibitor BI-1347 on a series of CDK8/19-regulated genes, using QPCR.
# We have also compared the stability of transcriptional changes induced by a PROTAC and by a kinase inhibitor. In the experiment shown in FIG. 10A, HEK-293 cells were treated with 200 nM of BI-1347 or IA7886 for 3 days, and then the inhibitors were washed off and the restoration of transcriptional changes was monitored 24 hrs and 48 hrs after wash-off.
# [2] = biological target: T1, CDK8 (Homo sapiens, UniProt P49336); test: CDK8 degradation in HEK-293 cells with CRISPR knockout of CCNC; format: cell-based; set-up: a derivative of HEK-293cells with CRISPR-mediated knockout of CCNC; endogenous in cells; host or cells: HEK-293 with CRISPR knockout of CCNC; conditions: HEK-293 CCNC-knockout cells, 24 hr treatment
# Description: This cell line, however, is unique in lacking Cyclin C (CCNC), the binding partner of CDK8/19. To test if the absence of CDK8-bound CCNC was responsible for the loss of IA7843 CDK8-degrading activity, we have tested the effect of IA7843 on a derivative of HEK-293cells with CRISPR-mediated knockout of CCNC.
# Target sequence in this assay (P49336 whole entry): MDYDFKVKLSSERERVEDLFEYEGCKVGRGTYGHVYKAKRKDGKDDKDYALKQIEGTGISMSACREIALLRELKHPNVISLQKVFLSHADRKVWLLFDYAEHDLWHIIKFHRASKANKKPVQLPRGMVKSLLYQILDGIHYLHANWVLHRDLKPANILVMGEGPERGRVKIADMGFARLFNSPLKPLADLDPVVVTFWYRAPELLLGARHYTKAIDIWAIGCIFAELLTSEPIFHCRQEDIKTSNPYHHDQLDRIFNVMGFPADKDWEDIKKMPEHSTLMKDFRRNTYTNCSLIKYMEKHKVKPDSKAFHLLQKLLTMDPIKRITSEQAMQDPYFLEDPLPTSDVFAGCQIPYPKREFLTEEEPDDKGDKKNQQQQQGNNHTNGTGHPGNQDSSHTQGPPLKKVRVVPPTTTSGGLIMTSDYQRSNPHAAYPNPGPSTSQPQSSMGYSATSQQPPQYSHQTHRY
# [3] = biological target: T1, CDK8; test: CDK8 degradation in other human cell lines (22Rv1, MV4-11, HAP-1, HTB-185, SAOS2, SJSA-1); format: cell-based; set-up: endogenous in cells; conditions: 24-hr treatment
# Description: (§1) FIG. 5 illustrates the effects of the novel PROTACs HP8580, IA7843 and IA7886 on CDK8 and CDK19 degradation in other human cell lines, including 22Rv1 prostate cancer (expressing more CDK19 than CDK8), MV4-11 (AML) and HAP-1 (CML) leukemia cell lines, HTB-185 medulloblastoma, and SAOS2 and SJSA-1 osteosarcoma (the latter expressing only CDK19 but not CDK8).
# Target sequence in this assay (P49336 whole entry): as above
# Target sequence in this assay (P24863 whole entry partner): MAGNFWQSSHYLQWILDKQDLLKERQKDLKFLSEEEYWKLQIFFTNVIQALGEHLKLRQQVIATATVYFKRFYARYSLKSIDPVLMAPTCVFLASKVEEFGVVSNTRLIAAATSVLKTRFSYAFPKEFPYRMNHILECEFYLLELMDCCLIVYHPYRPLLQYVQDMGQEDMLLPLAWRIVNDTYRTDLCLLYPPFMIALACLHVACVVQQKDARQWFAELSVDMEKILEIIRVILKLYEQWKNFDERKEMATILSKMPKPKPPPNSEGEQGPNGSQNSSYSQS
# [4] = tested on: KMS-12-BM cells; test: Concentration dependence of KMS-12-BM growth inhibition (CCK-8 assay); format: cell-based; conditions: Homo sapiens, 96 h, over 4 days
# Procedure: Concentration dependence of KMS-12-BM growth inhibition over 4 days was determined for BI-1347 CDK8/19 kinase inhibitor and IA7886 PROTAC using CCK-8 assay (FIG. 13B).
# [5] = tested on: CCL12; test: CCL12 mRNA expression in CT26 tumors in Balb/c mice (QPCR); format: in vivo; conditions: oral gavage 20 mg/kg, 2, 8 or 24 hrs after dosing
# Procedure: (§2) CT26 cells were injected subcutaneously into syngeneic Balb/c female mice and allowed to grow to 150˜200 mm^3. Tumor-bearing mice then received PROTACs IA7882 or IA7886 by oral gavage at 20 mg/kg in 30% propylene glycol/70% PEG-400 vehicle. Tumors were collected 2, 8 or 24 hrs after dosing and used to measure protein levels of CDK8, pS727 STAT1 and total STAT1 (by western blotting) and mRNA expression of CCL12, a gene that is inhibited by different CDK8/19 inhibitors in CT26 tumors in vivo (by QPCR).
# [6] = tested on: pS727 STAT1 and total STAT1; test: pS727 STAT1 and total STAT1 in CT26 tumors in Balb/c mice; format: in vivo; conditions: oral gavage 20 mg/kg, 2, 8 or 24 hrs after dosing
# Procedure: as §2
# [7] = biological target: T2, CDK8 (Canis lupus familiaris, UniProt A0A8I3PYQ8); test: CDK8 degradation in canine Abrams osteosarcoma cells; format: cell-based
# T2 construct: endogenous in cells; host or cells: Abrams (canine osteosarcoma)
# T2 sequence (A0A8I3PYQ8 1-464): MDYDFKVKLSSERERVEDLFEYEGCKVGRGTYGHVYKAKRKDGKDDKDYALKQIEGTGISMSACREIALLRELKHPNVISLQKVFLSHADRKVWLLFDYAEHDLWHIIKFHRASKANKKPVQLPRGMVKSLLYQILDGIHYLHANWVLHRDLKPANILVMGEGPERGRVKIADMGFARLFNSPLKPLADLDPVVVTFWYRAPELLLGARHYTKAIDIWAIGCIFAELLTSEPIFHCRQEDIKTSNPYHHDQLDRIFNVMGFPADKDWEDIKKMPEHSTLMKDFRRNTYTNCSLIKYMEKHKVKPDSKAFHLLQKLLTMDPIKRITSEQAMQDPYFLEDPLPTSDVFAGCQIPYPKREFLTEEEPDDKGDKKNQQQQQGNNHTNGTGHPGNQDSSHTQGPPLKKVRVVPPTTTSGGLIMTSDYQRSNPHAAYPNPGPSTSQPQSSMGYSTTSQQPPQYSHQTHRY
# Description: (§3) Both the extent and the kinetics of CDK8 degradation were similar between two cell lines, with the degradation reaching maximum at about 8 hrs of PROTAC treatment.
# [8] = biological target: CDK19 (Homo sapiens, UniProt Q9BWU1); test: CDK19 degradation in other human cell lines (22Rv1, MV4-11, HAP-1, HTB-185, SAOS2, SJSA-1); format: cell-based; set-up: endogenous in cells; conditions: 24-hr treatment
# Chain of CDK19 (Homo sapiens, UniProt Q9BWU1) (Q9BWU1 whole entry): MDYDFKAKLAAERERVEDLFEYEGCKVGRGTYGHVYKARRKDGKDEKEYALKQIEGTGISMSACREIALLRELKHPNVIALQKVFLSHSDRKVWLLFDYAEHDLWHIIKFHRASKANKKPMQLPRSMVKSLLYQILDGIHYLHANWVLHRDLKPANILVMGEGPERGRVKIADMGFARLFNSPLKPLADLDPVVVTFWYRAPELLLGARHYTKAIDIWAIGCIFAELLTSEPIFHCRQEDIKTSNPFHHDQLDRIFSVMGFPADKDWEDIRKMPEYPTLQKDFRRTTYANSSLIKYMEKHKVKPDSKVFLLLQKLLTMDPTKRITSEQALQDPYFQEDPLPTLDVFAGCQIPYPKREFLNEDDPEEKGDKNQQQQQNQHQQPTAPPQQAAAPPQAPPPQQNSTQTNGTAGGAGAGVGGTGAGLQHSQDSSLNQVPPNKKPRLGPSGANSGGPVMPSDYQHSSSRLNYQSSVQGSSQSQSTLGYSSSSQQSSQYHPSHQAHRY
# Chain of CDK19 (Homo sapiens, UniProt Q9BWU1) (P24863 whole entry partner): as the sequence (P24863 whole entry partner) above
# Description: as §1
# [9] = biological target: T3, CDK19 (Canis lupus familiaris, UniProt A0A8I3NZB9); test: CDK19 degradation in canine Abrams osteosarcoma cells; format: cell-based
# T3 construct: endogenous in cells; host or cells: Abrams (canine osteosarcoma)
# T3 sequence (A0A8I3NZB9 1-502): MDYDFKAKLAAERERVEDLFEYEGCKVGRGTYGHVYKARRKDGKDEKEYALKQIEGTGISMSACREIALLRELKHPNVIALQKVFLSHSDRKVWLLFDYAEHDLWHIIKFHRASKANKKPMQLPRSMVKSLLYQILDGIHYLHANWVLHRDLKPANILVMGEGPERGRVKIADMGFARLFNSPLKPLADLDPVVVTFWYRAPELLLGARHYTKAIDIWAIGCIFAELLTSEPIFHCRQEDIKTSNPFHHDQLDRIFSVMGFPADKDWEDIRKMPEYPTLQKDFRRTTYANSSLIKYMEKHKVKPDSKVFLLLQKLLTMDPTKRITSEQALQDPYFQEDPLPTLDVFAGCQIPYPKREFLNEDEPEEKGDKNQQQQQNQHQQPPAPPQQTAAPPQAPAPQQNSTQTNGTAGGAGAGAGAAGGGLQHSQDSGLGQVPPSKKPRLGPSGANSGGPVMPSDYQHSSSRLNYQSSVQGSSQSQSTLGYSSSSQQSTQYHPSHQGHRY
# Description: as §3
smiles,measurement,setting,value
"O=C(CCCNc1cccc2c1C(=O)N(C1CCC(=O)NC1=O)C2=O)NCCCCCCCCCCC(=O)N1CCN(C(=O)Cn2cc(-c3ccc(-c4cncc5ccccc45)cc3)cn2)CC1 (centres unmarked) [IA7886, 4-[[2-(2,6-dioxo-3-piperidyl)-1,3-dioxo-isoindolin-4-yl]amino]-N-[11-[4-[2-[4-[4-(4-isoquinolyl)phenyl]pyrazol-1-yl]acetyl]piperazin-1-yl]-11-oxo-undecyl]butanamide]",effect on expression of CDK8/19-regulated genes,[1]; CDK8/19 double-knockout (dKO) 293 cells,had no effect in dKO cells
same,stability of transcriptional changes after wash-off,"[1]; HEK-293, 200 nM for 3 days, then 24 hrs and 48 hrs after wash-off",maintained even 48 hrs after wash-off
same,effect on expression of CDK8/19-regulated genes,[1]; wild-type HEK-293 cells,had similar effects on the expression of the tested genes
same,CDK8 degradation (in words),[2],efficiently degraded CDK8 and CDK19
same,CDK8 degradation (in words),[3],significantly degraded CDK8 and CDK19 in all the tested cell lines
same,IC50,[4],18 nM
same,levels of CCL12 mRNA in tumors,[5],decreased in tumors treated with IA7882 or IA7886 2 hrs or 8 hrs (but not 24 hrs) after dosing
same,pS727 STAT1 and total STAT1 in tumors,[6],decreased in most of the tumors collected 2 hrs or 8 hrs after dosing
same,CDK8 degradation (in words),[7],induce CDK8 degradation in both cell lines
same,CDK19 degradation (in words),[8],significantly degraded CDK8 and CDK19 in all the tested cell lines
same,CDK19 degradation (in words),[9],induced CDK19 degradation in Abrams cells
